Entries after “also recorded” stand apart in the source; their conditions may differ.
Experiments:
ΔF508-CFTR = ΔF508-CFTR (Homo sapiens, UniProt P13569, DEL508-508); format: cell-based; settings: after corrector and CB; inh172 and glibenclamide as a mixture
[1] = tested on: cAMP-dependent Cl− short-circuit current of mouse colon tissue; settings: 100 μM bumetanide, basolateral side
Description: Mice were 32 to 38 weeks old and weighed 23 to 36 g. Pups were weaned at 21 days and fed solid mouse chow (Teklad 2018S, Harland). All mice were allowed food and water ad libitum until the time of sacrifice by cervical dislocation. Colons were dissected, cut in 4 pieces from rectum to lower intestine. The fragments from colon were introduced immediately into Ussing chambers for subsequent short-circuit experiments.
Transepithelial transport measurements were performed as described previously^33 in the short-circuit mode (6 mice and 17 tissus). […] The excised colon were stripped of external muscle layers and mounted in Ussing chambers (0.018 cm^2 aperture). Hemichambers were connected to a DVC-1000 voltage clamp (World Precision Instruments, Inc., Sarasota, Fla.) via Ag/AgCl electrodes and 3 M KCl agar bridges for recording of short-circuit current. Currents were stored on a computer using analog-to-digital converter (PowerLab) and LabChart software 5.0. Prior to the experiment, prostaglandin generation was blocked with 10 μM indomethacin on the apical and basolateral sides (incubation of tissue for 30 min before the beginning of the experiment). Transepithelial Isc was calculated as μEq cm^−2 tissue surface area. The apical and basolateral solutions contained (in mM): 116 NaCl, 25 NaHCO3, 1.2 CaCl2, 1.2 MgCl2, 2,4 […], 0,4 KH2PO4, 10 glucose and was gassed with 95% O2-5% CO2 (pH 7.4).

CFTR channels (WT-CFTR) = CFTR channels (WT-CFTR) (Homo sapiens, UniProt P13569); format: cell-based; settings: 100 μM glibenclamide and 10 μM inh172
From the text: HeLa cells stably transfected with WT-CFTR were kindly provided by Pascale Fanen (INSERM U955, Créteil, France). The intracellular side of the membrane patch was exposed to a solution containing (in mM): 150 N-methyl-D-gluconate chloride (NMDG-Cl), 0.5 MgCl2, 2 EGTA, 10 HEPES, 10 glucose, pH 7.4, adjusted to pH 7.4 with NMDG. The patch pipettes were filled with (in mM): 150 NMDG-Cl, 0.5 MgCl2, 2 EGTA, 10 HEPES, 10 glucose, 1 ATP-Mg adjusted to pH 7.4 with NMDG. CFTR channels were activated by addition of 40 nM PKA+1 mM ATP-Mg at the intracellular side of the patches. The presence of CFTR channels was verified by addition of 100 μM glibenclamide and 10 μM inh172. The effect of CB was tested by perfusion of 1 nM of CB in the intracellular solution in the presence of 40 nM PKA+0.05, 0.5, or 1 mM ATP-Mg. The currents were recorded as previously described^34. […] Currents were recorded with Bio-logic RK 400 patch-clamp amplifiers (Bio-Logic, Claix, France), monitored using PClamp9 software (Axon Instruments, Foster City, Calif., USA) and stored on a computer. […] We calculated channel activity (NPo) as <I>/i, where <I> is the time-averaged current passing through the channels on the patch with the closed current level as reference and i is the unit current amplitude.

ΔF508-NBD1 of CFTR = ΔF508-NBD1 of CFTR (Homo sapiens, UniProt P13569, DEL508-508); format: binding
[2] = target: CFTR (WT-CFTR) Cl− channel (Homo sapiens, UniProt P13569); format: cell-based
[3] = target: recombinant, purified human NBD1 (nucleotide binding domain 1) of CFTR, wild type (human, UniProt P13569 389-678)
[4] = target: human ΔF508-NBD1 (NBD1 domain of CFTR with deletion of Phe508) (human, UniProt P13569 389-678)
Chain of human ΔF508-NBD1 (NBD1 domain of CFTR with deletion of Phe508) (P13569 other isoform, or with tags, fused parts or gaps mutant limits assumed): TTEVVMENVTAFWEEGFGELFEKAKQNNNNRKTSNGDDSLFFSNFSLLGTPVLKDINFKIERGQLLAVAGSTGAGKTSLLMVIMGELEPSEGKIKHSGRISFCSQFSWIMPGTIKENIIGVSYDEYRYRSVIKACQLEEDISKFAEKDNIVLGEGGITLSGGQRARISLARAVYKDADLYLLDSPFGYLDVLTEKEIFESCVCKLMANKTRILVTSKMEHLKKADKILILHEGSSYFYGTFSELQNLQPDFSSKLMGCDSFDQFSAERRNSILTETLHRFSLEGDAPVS

Chain of recombinant, purified human NBD1 (nucleotide binding domain 1) of CFTR, wild type (P13569 389-678 limits assumed): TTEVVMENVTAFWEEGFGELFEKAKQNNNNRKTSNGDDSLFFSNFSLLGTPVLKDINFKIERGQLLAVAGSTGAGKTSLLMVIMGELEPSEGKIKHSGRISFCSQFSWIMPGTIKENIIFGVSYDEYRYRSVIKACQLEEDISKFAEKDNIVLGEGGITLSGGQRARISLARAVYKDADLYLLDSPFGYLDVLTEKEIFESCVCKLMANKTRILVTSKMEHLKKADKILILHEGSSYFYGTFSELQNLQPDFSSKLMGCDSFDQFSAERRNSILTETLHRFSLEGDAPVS
Chain of ΔF508-CFTR (P13569 with tags, fused parts or gaps DEL508-508): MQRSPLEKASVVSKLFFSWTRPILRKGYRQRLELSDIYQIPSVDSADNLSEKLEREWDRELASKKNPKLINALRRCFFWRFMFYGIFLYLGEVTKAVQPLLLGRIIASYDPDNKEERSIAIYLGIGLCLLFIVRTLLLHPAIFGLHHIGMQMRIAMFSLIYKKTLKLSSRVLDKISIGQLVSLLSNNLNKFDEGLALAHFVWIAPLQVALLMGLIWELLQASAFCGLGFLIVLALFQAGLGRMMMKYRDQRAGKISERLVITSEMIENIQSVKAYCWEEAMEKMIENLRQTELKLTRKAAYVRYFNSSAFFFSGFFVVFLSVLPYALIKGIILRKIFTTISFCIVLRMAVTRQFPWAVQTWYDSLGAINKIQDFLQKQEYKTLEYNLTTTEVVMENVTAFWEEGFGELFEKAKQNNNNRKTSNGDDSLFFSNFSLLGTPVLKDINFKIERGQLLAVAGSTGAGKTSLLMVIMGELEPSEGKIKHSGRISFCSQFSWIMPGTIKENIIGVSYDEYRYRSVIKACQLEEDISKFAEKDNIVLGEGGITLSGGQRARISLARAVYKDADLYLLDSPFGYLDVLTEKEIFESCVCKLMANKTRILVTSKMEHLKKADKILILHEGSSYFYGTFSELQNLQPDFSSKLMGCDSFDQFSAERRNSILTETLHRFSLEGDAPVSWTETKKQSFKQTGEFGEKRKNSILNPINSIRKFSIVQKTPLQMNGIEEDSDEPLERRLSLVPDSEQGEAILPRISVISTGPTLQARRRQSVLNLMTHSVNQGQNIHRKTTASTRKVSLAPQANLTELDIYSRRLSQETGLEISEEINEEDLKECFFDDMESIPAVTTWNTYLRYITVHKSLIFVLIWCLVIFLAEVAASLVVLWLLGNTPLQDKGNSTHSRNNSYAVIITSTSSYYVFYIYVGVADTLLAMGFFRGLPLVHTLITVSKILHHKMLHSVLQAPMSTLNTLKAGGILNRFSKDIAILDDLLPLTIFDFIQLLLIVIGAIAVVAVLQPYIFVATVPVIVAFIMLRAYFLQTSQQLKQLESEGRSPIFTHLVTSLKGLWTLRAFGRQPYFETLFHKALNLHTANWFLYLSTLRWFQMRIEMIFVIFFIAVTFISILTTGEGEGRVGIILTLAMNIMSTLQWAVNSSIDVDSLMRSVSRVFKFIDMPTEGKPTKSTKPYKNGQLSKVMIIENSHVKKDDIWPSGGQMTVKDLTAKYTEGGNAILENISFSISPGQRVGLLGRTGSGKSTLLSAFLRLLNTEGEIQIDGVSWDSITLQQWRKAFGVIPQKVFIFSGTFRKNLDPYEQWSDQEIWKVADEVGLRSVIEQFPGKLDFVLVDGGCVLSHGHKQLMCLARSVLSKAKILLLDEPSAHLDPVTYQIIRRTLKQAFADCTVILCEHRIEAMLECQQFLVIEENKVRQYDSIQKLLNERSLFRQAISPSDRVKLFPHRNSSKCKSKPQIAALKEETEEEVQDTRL
Chain of ΔF508-NBD1 of CFTR (P13569 with tags, fused parts or gaps DEL508-508 limits assumed): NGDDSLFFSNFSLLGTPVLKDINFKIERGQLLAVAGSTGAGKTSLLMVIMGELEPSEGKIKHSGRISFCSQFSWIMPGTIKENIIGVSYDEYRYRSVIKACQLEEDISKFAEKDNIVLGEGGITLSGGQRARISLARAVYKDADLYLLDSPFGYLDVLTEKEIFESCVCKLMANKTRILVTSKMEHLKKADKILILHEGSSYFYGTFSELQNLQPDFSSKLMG
Chain of CFTR channels (WT-CFTR) (P13569 whole entry, the tested form may be a part): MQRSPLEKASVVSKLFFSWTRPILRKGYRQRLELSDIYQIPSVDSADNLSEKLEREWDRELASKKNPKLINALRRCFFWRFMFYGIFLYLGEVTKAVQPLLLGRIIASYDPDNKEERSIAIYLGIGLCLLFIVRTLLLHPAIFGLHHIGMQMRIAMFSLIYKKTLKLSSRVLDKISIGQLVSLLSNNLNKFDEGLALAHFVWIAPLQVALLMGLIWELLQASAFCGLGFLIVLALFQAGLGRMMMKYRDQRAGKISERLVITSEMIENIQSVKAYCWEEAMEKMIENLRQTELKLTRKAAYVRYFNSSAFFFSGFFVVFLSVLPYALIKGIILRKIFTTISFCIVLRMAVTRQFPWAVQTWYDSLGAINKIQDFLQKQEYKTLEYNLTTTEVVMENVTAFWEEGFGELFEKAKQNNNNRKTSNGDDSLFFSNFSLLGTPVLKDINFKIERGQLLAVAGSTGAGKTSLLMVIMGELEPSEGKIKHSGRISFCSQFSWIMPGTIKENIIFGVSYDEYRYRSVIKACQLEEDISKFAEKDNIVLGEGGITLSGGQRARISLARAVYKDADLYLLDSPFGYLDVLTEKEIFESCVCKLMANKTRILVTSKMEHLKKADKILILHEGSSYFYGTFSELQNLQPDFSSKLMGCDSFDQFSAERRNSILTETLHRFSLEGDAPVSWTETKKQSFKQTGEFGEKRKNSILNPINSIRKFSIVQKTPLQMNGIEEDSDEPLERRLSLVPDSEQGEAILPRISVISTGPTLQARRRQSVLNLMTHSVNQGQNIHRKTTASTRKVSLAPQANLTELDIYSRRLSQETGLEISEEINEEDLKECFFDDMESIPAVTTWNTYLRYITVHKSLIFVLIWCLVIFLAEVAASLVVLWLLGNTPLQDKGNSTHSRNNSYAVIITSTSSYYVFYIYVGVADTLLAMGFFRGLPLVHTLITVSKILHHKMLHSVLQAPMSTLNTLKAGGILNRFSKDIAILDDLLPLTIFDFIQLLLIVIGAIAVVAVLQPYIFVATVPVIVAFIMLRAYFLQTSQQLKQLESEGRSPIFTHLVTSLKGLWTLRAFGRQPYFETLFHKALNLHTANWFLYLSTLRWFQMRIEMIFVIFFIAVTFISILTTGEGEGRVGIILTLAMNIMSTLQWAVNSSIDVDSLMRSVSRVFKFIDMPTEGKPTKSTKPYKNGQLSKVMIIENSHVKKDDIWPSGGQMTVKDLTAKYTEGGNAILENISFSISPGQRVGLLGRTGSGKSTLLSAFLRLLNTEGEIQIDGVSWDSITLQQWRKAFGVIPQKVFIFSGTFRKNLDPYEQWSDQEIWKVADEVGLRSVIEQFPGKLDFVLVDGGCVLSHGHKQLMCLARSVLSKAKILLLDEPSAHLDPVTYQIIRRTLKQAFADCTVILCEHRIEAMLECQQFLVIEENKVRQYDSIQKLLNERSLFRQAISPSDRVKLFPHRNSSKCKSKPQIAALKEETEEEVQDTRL
Chain of CFTR (WT-CFTR) Cl− channel (P13569 whole entry, the tested form may be a part): as above

glyH101 was tested, and the “inhibition of the CB-potentiated current” value (ΔF508-CFTR) was “inhibited”.

In the case of CCCCNc1cc(C(=O)O)cc(S(N)(=O)=O)c1Oc1ccccc1 [bumetanide], the “inhibition of the CB-induced Isc increase” value [1] is reported as “inhibited”.

In the case of COc1ccc(Cl)cc1C(=O)NCCc1ccc(S(=O)(=O)NC(=O)NC2CCCCC2)cc1 [glibenclamide], the “inhibition of the activated channels” value (CFTR channels (WT-CFTR)) is reported as “inhibited” and the “inhibition of the CB-potentiated current” value (ΔF508-CFTR) is reported as “only slightly”.

In the case of NAVPFYAFYGCYCGWGGQ, the “binding of peptide to mutated NBD1” value (ΔF508-NBD1 of CFTR) is reported as “has shown interaction; also recorded: interacts with ΔF508-NBD1” and the “Cl− channel current” value (Cl— channel current) is reported as “increased; also recorded: increases Cl— channel current”.

For CCCCC/C=C\C/C=C\C/C=C\C/C=C\CCCC(=O)O [arachidonic acid], the “effect on IcAMP (CFTR-Cl− current)” value [2] was “no effect on IcAMP”.

B1: recombinant human non-pancreatic secreted phospholipase A2 group IIA (enzyme, UniProt P14555 21-144, looked up)
chain: NLVNFHRMIKLTTGKEAALSYGFYGCHCGVGGRGSPKDATDRCCVTHDCCYKRLEKRGCGTKFLSYKFSNSGSRITCAKQDSCRSQLCECDKAAATCFARNKTTYNKKYQYYSNKHCRGSTPRC
In the case of B1, the Kd [3] is reported as 35 nM, the koff [3] is reported as 0.0021 s⁻¹ and the kon [3] is reported as 59000 M⁻¹ s⁻¹. The Kd [4] was 37 nM, the koff [4] was 0.0066 s⁻¹ and the kon [4] was 180000 M⁻¹ s⁻¹.

— patent publication US20190391160A1 (INSTITUT PASTEUR, published 2019)
